Source: ChEMBL document CHEMBL4699486, “Fragment-based lead discovery of a novel class of small molecule antagonists of neuropeptide B/W receptor subtype 1 (GPR7)” (Bioorg Med Chem Lett, 2020)

Target: T1, Neuropeptides B/W receptor type 1 (Homo sapiens, UniProt P48145)
T1 sequence (P48145 whole entry): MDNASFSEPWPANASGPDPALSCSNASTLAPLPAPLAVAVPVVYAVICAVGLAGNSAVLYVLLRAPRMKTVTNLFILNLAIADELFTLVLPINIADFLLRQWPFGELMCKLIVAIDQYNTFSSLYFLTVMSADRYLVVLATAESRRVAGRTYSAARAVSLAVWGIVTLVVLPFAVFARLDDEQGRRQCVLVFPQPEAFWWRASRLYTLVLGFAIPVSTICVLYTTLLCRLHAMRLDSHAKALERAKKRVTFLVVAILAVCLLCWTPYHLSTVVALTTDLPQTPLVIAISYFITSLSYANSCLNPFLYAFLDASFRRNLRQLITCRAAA
Assay: Antagonist activity at human NPBWR1 assessed as inhibition of agonist-induced cAMP accumulation by cAMP assay
Type: functional

Row | SMILES | IC50 [µM]
1 | FC(F)(F)c1ccc2[nH]c(-c3ccccc3)nc2c1 | 1.2
2 | O=[N+]([O-])c1ccc2[nH]c(-c3ccccc3)nc2c1 | 10
3 | O=[N+]([O-])c1ccc2nc(-c3ccc(Cl)cc3)[nH]c2c1 | 2.69
4 | Cc1ccc(-c2nc3cc([N+](=O)[O-])ccc3[nH]2)cc1 | 1.5
5 | COc1ccc(-c2nc3cc([N+](=O)[O-])ccc3[nH]2)cc1 | 6.08
6 | Nc1ccc(-c2nc3cc([N+](=O)[O-])ccc3[nH]2)cc1 | 8.48
7 | O=[N+]([O-])c1ccc2nc(-c3ccc(Cl)c(Cl)c3)[nH]c2c1 | > 31.6
8 | O=[N+]([O-])c1ccc2nc(-c3ccc(Cl)cc3Cl)[nH]c2c1 | 2.88
9 | O=[N+]([O-])c1ccc2nc(-c3ccccc3Cl)[nH]c2c1 | 10.7
10 | O=[N+]([O-])c1ccc2[nH]c(-c3ccc(Cl)cc3Br)nc2c1 | 1.76
11 | O=[N+]([O-])c1ccc2[nH]c(-c3ccc(-c4ccccc4)cc3)nc2c1 | 4.88
12 | O=[N+]([O-])c1ccc2[nH]c(-c3c(Cl)cc(Cl)cc3I)nc2c1 | 0.205
13 | Cc1ccc(-c2nc3cc([N+](=O)[O-])ccc3[nH]2)cc1C | 1.38
14 | CCc1ccc(-c2nc3cc([N+](=O)[O-])ccc3[nH]2)cc1 | 1.02
15 | Cc1ccc(-c2nc3cc([N+](=O)[O-])ccc3[nH]2)c(C)c1 | 1.54
16 | O=[N+]([O-])c1ccc2[nH]c(-c3ccccc3N3CCCC3)nc2c1 | 6.77
17 | FC(F)(F)c1ccc2[nH]c(-c3ccc(-c4nnc[nH]4)cc3)nc2c1 | 3.08

Row | SMILES | IC50 [µM]
18 | FC(F)(F)c1ccc2[nH]c(-c3ccc(-c4c[nH]nc4C(F)(F)F)cc3)nc2c1 | 1.2
19 | O=[N+]([O-])c1ccc2[nH]c(-c3ccc(Cl)c(Br)c3)nc2c1 | > 31.6
20 | FC(F)(F)c1ccc2[nH]c(-c3ccc(-c4ccoc4)cc3)nc2c1 | 1.19
21 | NS(=O)(=O)c1ccc(-c2nc3cc([N+](=O)[O-])ccc3[nH]2)cc1 | > 31.6
22 | Cn1cc(-c2ccc(-c3nc4cc(C(F)(F)F)ccc4[nH]3)cc2)cn1 | 1.47
23 | O=[N+]([O-])c1ccc2[nH]c(-c3cccc(Cl)c3)nc2c1 | 9.98
24 | Cc1cc(Cl)ccc1-c1nc2cc([N+](=O)[O-])ccc2[nH]1 | 2.49
25 | NCc1ccc(-c2ccc(-c3nc4cc(C(F)(F)F)ccc4[nH]3)cc2)cc1 | 0.72
26 | O=[N+]([O-])c1ccc2[nH]c(-c3cccc(N4CCCC4)c3)nc2c1 | 6.01
27 | CC(=O)c1ccccc1-c1nc2cc([N+](=O)[O-])ccc2[nH]1 | > 31.6
28 | O=[N+]([O-])c1ccc2[nH]c(-c3ccc(C(F)(F)F)cc3)nc2c1 | > 31.6
29 | Cc1cc(-c2nc3cc([N+](=O)[O-])ccc3[nH]2)ccc1Cl | 2.29
30 | CC(=O)c1cccc(-c2nc3cc([N+](=O)[O-])ccc3[nH]2)c1 | > 31.6
31 | CC(=O)c1ccc(-c2nc3cc([N+](=O)[O-])ccc3[nH]2)cc1 | 9.32
32 | CC(C)(C)c1ccc(-c2nc3cc([N+](=O)[O-])ccc3[nH]2)cc1 | 3.18
33 | O=[N+]([O-])c1ccc2[nH]c(-c3ccc(N4CCCC4)cc3)nc2c1 | 1.81
